Laboratory results as given in ChEMBL document CHEMBL1909046, “DrugMatrix in vitro pharmacology data”.

Experiments:
Adenosine receptor A2a = Adenosine receptor A2a (Homo sapiens, UniProt P29274); experiment: DRUGMATRIX: Adenosine A2A radioligand binding (ligand: […]); type: cell membranes, HEK293, Membrane; conditions: hek293; Not Active = under 50% inhibition at 10 µM
[1] = target: T1, Muscarinic acetylcholine receptor M5 (Homo sapiens, UniProt P08912); type: cell membranes, Membrane; conditions: cho-k1; also: in other assays of this panel Not Active means under 50% inhibition at 10 µM
T1 sequence (P08912 whole entry): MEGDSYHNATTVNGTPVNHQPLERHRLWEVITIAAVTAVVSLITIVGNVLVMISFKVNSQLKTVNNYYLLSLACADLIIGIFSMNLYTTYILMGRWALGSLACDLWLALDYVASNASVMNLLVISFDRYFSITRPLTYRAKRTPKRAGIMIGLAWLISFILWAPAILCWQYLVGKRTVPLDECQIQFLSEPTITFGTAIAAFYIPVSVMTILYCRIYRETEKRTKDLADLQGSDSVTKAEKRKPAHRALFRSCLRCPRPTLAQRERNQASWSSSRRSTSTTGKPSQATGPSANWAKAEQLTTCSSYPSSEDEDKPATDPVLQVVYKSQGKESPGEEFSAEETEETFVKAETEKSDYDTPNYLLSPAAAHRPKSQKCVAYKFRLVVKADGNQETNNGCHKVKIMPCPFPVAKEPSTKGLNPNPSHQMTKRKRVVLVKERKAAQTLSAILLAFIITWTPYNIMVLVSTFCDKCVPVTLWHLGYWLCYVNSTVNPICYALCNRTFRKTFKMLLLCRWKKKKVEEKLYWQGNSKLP

[2] = DRUGMATRIX: Imidazoline I2, Central radioligand binding (ligand: [3H] Idazoxan); type: cell membranes, Rattus norvegicus, Wistar, Cerebral cortex, Membrane; conditions: Not Active = under 50% inhibition at 10 µM
[3] = target: T2, Muscarinic acetylcholine receptor M2 (Homo sapiens, UniProt P08172); type: cell membranes, CHO-K1, Membrane; also: in other assays of this panel Not Active means under 50% inhibition at 10 µM
T2 sequence (P08172 whole entry): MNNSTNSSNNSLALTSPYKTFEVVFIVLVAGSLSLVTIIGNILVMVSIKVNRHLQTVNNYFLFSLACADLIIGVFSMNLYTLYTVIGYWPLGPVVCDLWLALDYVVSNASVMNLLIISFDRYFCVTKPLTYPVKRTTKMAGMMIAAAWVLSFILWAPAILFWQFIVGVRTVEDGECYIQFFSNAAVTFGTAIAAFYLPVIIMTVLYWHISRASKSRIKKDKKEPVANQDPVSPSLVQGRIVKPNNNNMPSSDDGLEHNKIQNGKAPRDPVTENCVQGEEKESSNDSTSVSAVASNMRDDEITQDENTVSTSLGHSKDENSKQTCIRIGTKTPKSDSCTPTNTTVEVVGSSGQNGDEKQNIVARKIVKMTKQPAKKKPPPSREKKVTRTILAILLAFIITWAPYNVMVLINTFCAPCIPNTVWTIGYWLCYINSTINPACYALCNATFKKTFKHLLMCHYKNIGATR

Cytochrome P450 2C9 = Cytochrome P450 2C9 (Homo sapiens, UniProt P11712); conditions: bti-tn-5b1-4; also: in other assays of this panel Not Active means under 50% inhibition at 10 µM
[4] = target: Epidermal growth factor receptor (Homo sapiens, UniProt P00533); experiment: DRUGMATRIX: Protein Tyrosine Kinase, EGF Receptor enzyme inhibition (substrate: Poly(Glu:Tyr)); type: cell-based, Insect cells; conditions: insect cells; Not Active = under 50% inhibition at 10 µM

Sequence of Cytochrome P450 2C9 (P11712 whole entry): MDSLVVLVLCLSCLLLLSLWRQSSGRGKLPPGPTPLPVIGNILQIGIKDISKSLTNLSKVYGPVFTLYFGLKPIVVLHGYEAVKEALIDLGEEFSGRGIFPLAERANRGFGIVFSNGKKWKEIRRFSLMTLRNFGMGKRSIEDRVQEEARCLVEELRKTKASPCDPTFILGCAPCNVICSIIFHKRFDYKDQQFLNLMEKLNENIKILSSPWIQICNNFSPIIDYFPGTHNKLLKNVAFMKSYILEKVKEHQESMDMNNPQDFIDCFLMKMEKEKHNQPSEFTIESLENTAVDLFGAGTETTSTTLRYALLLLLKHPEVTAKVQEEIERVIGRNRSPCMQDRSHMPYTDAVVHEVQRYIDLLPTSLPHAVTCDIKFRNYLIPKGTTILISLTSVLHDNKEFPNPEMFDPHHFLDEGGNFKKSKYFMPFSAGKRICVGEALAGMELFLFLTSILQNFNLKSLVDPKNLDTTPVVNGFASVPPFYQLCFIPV
Sequence of Adenosine receptor A2a (P29274 whole entry): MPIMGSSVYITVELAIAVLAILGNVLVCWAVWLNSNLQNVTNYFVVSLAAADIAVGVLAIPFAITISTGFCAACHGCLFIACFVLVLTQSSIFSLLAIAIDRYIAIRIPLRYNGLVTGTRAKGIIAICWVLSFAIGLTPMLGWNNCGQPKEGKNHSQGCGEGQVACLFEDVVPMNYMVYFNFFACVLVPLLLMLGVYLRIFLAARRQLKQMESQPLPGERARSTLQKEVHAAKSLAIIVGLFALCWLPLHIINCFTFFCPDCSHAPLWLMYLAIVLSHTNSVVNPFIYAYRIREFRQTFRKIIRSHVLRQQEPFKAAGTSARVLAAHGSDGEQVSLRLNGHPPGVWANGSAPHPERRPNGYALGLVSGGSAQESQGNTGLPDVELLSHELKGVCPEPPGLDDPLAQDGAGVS

Row | Compound | IC50 (Adenosine receptor A2a) | IC50 [1] | IC50 [2] | Ki [2] | IC50 ([3]; cho-k1) | IC50 (Cytochrome P450 2C9) | Ki (Cytochrome P450 2C9) | IC50 [4] | Ki (Adenosine receptor A2a) | Ki [1] | Ki ([3]; cho-k1) | Ki [4] | IC50 ([3]; read-out: IC50) | Ki ([3]; read-out: Ki) | IC50 ([2]; read-out: IC50) | Ki ([2]; read-out: Ki)
1 | COC(=O)c1ccccc1O [METHYL SALICYLATE] | Not Active | Not Active | Not Active | Not Active | Not Active | Not Active | Not Active | Not Active | – | – | – | – | – | – | – | –
2 | COBALT(II) ACETYLACETONATE | Not Active | Not Active | Not Active | Not Active | Not Active | Not Active | Not Active | Not Active | Not Active | Not Active | Not Active | Not Active | – | – | – | –
3 | CN(C(=O)CCCOc1ccc2[nH]c(=O)ccc2c1)C1CCCCC1 [CILOSTAMIDE] | Not Active | Not Active | Not Active | Not Active | Not Active | Not Active | Not Active | Not Active | – | – | – | – | – | – | – | –
4 | INSULIN HUMAN | Not Active | Not Active | Not Active | Not Active | Not Active | Not Active | Not Active | Not Active | Not Active | Not Active | Not Active | Not Active | – | – | – | –
5 | CCOC(=O)[C@H](CCc1ccccc1)N[C@@H](C)C(=O)N1CCC[C@H]1C(=O)O | Not Active | Not Active | Not Active | Not Active | Not Active | Not Active | Not Active | Not Active | – | – | – | – | – | – | – | –
6 | O=C(O)c1cc(=O)c2c(OCC(O)COc3cccc4oc(C(=O)O)cc(=O)c34)cccc2o1 [CROMOLYN] | Not Active | Not Active | Not Active | Not Active | Not Active | Not Active | Not Active | Not Active | – | – | – | – | – | – | – | –
7 | Cc1cccc(Nc2cc(Cl)nc(SCC(=O)O)n2)c1C [PIRINIXIC ACID] | Not Active | Not Active | Not Active | Not Active | Not Active | Not Active | Not Active | Not Active | – | – | – | – | – | – | – | –
8 | CC[C@H]1OC(=O)[C@H](C)[C@@H](O[C@H]2C[C@@](C)(OC)[C@@H](O)[C@H](C)O2)[C@H](C)[C@@H](O[C@@H]2O[C@H](C)C[C@H](N(C)C)[C@H]2O)[C@](C)(OC)C[C@@H](C)C(=O)[C@H](C)[C@@H](O)[C@]1(C)O [CLARITHROMYCIN] | Not Active | Not Active | Not Active | Not Active | Not Active | Not Active | Not Active | Not Active | – | – | – | – | – | – | – | –
9 | CC[C@]1(O)CC[C@H]2[C@@H]3CCC4=CCCC[C@@H]4[C@H]3CC[C@@]21C | Not Active | Not Active | Not Active | Not Active | – | Not Active | Not Active | Not Active | – | – | – | – | 0.292 µM | 0.104 µM | – | –
10 | CC(C)(Oc1ccc(C2CC2(Cl)Cl)cc1)C(=O)O (stereo unspecified) [CIPROFIBRATE] | Not Active | Not Active | Not Active | Not Active | Not Active | Not Active | Not Active | Not Active | – | – | – | – | – | – | – | –
11 | CO[C@H]1[C@@H](O)[C@H](N)[C@@H](O[C@H]2O[C@H]([C@H](C)N)CC[C@H]2N)[C@H](O)[C@@H]1N(C)C(=O)CN [ASTROMICIN] | Not Active | Not Active | Not Active | Not Active | Not Active | Not Active | Not Active | Not Active | – | – | – | – | – | – | – | –
12 | Clc1cc2c(cc1Cl)Oc1cc(Cl)c(Cl)cc1O2 [2,3,7,8-TETRACHLORODIBENZO-P-DIOXIN] | Not Active | Not Active | Not Active | Not Active | Not Active | Not Active | Not Active | Not Active | – | – | – | – | – | – | – | –
13 | CNC(=C[N+](=O)[O-])NCCSCc1csc(CN(C)C)n1 [NIZATIDINE] | Not Active | Not Active | Not Active | Not Active | Not Active | Not Active | Not Active | Not Active | – | – | – | – | – | – | – | –
14 | N=C(N)N/N=C/c1c(Cl)cccc1Cl [GUANABENZ] | Not Active | Not Active | – | – | Not Active | Not Active | Not Active | Not Active | – | – | – | – | – | – | 0.018 µM | 0.012 µM
15 | CC(C)C[C@H]1C(=O)N2CCC[C@H]2[C@]2(O)O[C@](NC(=O)[C@@H]3C=C4c5cccc6[nH]c(Br)c(c56)C[C@H]4N(C)C3)(C(C)C)C(=O)N12 [BROMOCRIPTINE] | Not Active | Not Active | – | – | Not Active | Not Active | Not Active | Not Active | – | – | – | – | – | – | 0.053 µM | 0.035 µM
16 | COc1ccc2cc(CCC(C)=O)ccc2c1 [NABUMETONE] | Not Active | Not Active | Not Active | Not Active | Not Active | Not Active | Not Active | Not Active | – | – | – | – | – | – | – | –
17 | CC(C(=O)O)c1ccc(CC2CCCC2=O)cc1 (stereo unspecified) [LOXOPROFEN] | Not Active | Not Active | Not Active | Not Active | Not Active | Not Active | Not Active | Not Active | – | – | – | – | – | – | – | –
18 | CCCCCC[C@H]1C(=O)O[C@H](C)[C@H](NC(=O)c2cccc(NC=O)c2O)C(=O)O[C@@H](C)[C@@H]1OC(=O)CC(C)C [ANTIMYCIN A] | Not Active | Not Active | Not Active | Not Active | Not Active | Not Active | Not Active | Not Active | – | – | – | – | – | – | – | –
19 | COc1ccc(Cc2nccc3cc(OC)c(OC)cc23)cc1OC [PAPAVERINE] | Not Active | Not Active | Not Active | Not Active | Not Active | Not Active | Not Active | Not Active | – | – | – | – | – | – | – | –
20 | O=c1cc(-c2ccccc2)oc2ccc3ccccc3c12 [BETA-NAPHTHOFLAVONE] | Not Active | Not Active | Not Active | Not Active | Not Active | Not Active | Not Active | Not Active | – | – | – | – | – | – | – | –
21 | CC(=O)O[C@]1(C(C)=O)CC[C@H]2[C@@H]3C=C(Cl)C4=CC(=O)[C@@H]5C[C@@H]5[C@]4(C)[C@H]3CC[C@@]21C [CYPROTERONE ACETATE] | Not Active | Not Active | Not Active | Not Active | Not Active | Not Active | Not Active | Not Active | – | – | – | – | – | – | – | –
22 | CCN[C@@H](C)Cc1cccc(C(F)(F)F)c1 [DEXFENFLURAMINE] | Not Active | Not Active | Not Active | Not Active | Not Active | Not Active | Not Active | Not Active | – | – | – | – | – | – | – | –
23 | Nn1nnc2ccccc21 | Not Active | Not Active | Not Active | Not Active | Not Active | Not Active | Not Active | Not Active | – | – | – | – | – | – | – | –
24 | O=C(O)Cc1ccc(-c2ccccc2)cc1 [FELBINAC] | Not Active | Not Active | Not Active | Not Active | Not Active | Not Active | Not Active | Not Active | – | – | – | – | – | – | – | –
